Test system: tHTT (total HTT protein)
Assay: Time-resolved FRET (HTRF) assay: Q48-Huntingtin and total-Huntingtin detection in GEN020 hESC lysates
Type: cell-based
Conditions: tHTT activity; human embryonic stem cells GEN020 (mutant 48 Q repeat allele); test compounds 48 hours; read-out: HTT Lowering Activity (HTRF)
Method: Time-resolved FRET assay: Q48-Huntingtin and total-Huntington detection Detection of endogenous HTT protein in cell lysates was performed using a protocol adapted from Weiss et al. See Weiss A et al. (2009). Single-step detection of mutant huntingtin in animal and human tissues: a bioassay for Huntington's disease. Anal. Biochem. 395(1): 8-15.
The multiplex assay was performed in human embryonic stem cells (GEN020 hESCs with mutant 48 Q repeat allele) which have been derived by Genea Biocells from human blastocysts of HD donors. Bradley C K et al. (2011). Derivation of Huntington's disease-affected human embryonic stem cell lines, Stem Cells Dev. 2011 March; 20(3):495-502. Cells were plated into 384-well collagen coated plates (10,000 cells per well) and left to adhere for 24 hours, test compounds were then added for 48 hours (37° C., 5% CO2), cells were then lysed, and the lysate was transferred to a black 384-well assay plate.
The assay plate included a combination of HTRF labelled monoclonal antibodies added to recognize discreet areas of the HTT protein, the Tb “donor” antibody (2B7-Tb: 0.2 ng/well) recognizes a sequence at the N-terminus of the protein, an Alexa488 “acceptor 1” antibody (MW1-Alexa488: 30 ng/well) recognizes an area in the polyQ region, whereas a d2 “acceptor 2” antibody (MAB2166-d2: 6 ng/well) recognizes a sequence beyond the polyQ region. These detection reagents were incubated with the cell lysate at room temperature for 4-6 hours before having their fluorescence quantified at 615 nm (donor) and 535 nm and 665 nm (acceptor 1 and 2 respectively). The donor/acceptor ratio between these signals indicated the relative quantities of mHTT and tHTT.
Results for various compounds described herein are provided in the Tables below. tHTT activity in this assay is categorized as 10-20 μM (−); 1-10 μM (+); 0.5-1 μM (++); 0.1-0.5 μM (+++); <0.1 μM (++++).

| SMILES | IC50 [nM] |
| --- | --- |
| CCNC1C2CN(c3cnc(C(=O)Nc4cc(F)c5nc(C)cn5c4)cn3)CC21 (stereo not drawn) [Example 23, 5-(6-(ethylamino)-3-azabicyclo[3.1.0]hexan-3-yl)-N-(8-fluoro-2-methylimidazo[1,2-a]pyridin-6-yl)pyrazine-2-carboxamide] | < 100 |
| Cc1cn2cc(NC(=O)c3cnc(N4CC5C(N)C5C4)cn3)cc(F)c2n1 (stereo not drawn) [Example 24, 5-(6-amino-3-azabicyclo[3.1.0]hexan-3-yl)-N-(8-fluoro-2-methyl-imidazo[1,2-a]pyridin-6-yl)pyrazine-2-carboxamide] | < 100 |
| Cc1cn2cc(NC(=O)c3cnc(N4CC5C(N)C5C4)cn3)nc(C)c2n1 (stereo not drawn) [Example 25] | 100 to 500 |
| COc1nc(NC(=O)c2cnc(N3CC4C(N)C4C3)cn2)cn2cc(C)nc12 (stereo not drawn) [Example 26] | < 100 |
| Cc1cn2cc(NC(=O)c3cnc(N4CC5C(N)C5C4)cn3)c(F)c(C)c2n1 (stereo not drawn) [Example 27] | 100 to 500 |
| Cc1cn2cc(NC(=O)c3cnc(N4CC5CC5(N)C4)cn3)cc(F)c2n1 (stereo not drawn) [Example 28] | 100 to 500 |
| CNC1C2CN(c3cnc(C(=O)Nc4cc(F)c5nc(C)cn5c4)cn3)CC21 (stereo not drawn) [Example 29, N-(8-Fluoro-2-methyl-imidazo[1,2-a]pyridin-6-yl)-5-[6-(methylamino)-3-azabicyclo[3.1.0]hexan-3-yl]pyrazine-2-carboxamide] | < 100 |
| COc1cc2nn(C)cc2cc1NC(=O)c1cnc(N2CC3C(N)C3C2)cn1 (stereo not drawn) [Example 30, 5-(6-Amino-3-azabicyclo[3.1.0]hexan-3-yl)-N-(6-methoxy-2-methyl-indazol-5-yl)pyrazine-2-carboxamide] | < 100 |
| Cc1cn2cc(NC(=O)c3cnc(N4CC[C@H](CNC5CC5)C4)cn3)c(F)c(C)c2n1 [Example 31, 5-[(3R)-3-[(cyclopropylamino)methyl]pyrrolidin-1-yl]-N-(7-fluoro-2,8-dimethyl-imidazo[1,2-a]pyridin-6-yl)pyrazine-2-carboxamide] | < 100 |
| Cc1cn2cc(NC(=O)c3cnc(N4CC5C(C4)C5N4CCCC4)cn3)cc(F)c2n1 (stereo not drawn) [Example 32, N-(8-Fluoro-2-methyl-imidazo[1,2-a]pyridin-6-yl)-5-(6-pyrrolidin-1-yl-3-azabicyclo[3.1.0]hexan-3-yl)pyrazine-2-carboxamide] | 500 to 1000 |
| CCNC1C2CN(c3cnc(C(=O)Nc4cn5cc(C)nc5c(OC)n4)cn3)CC21 (stereo not drawn) [Example 34, 5-(6-(ethylamino)-3-azabicyclo[3.1.0]hexan-3-yl)-N-(8-methoxy-2-methylimidazo[1,2-a]pyrazin-6-yl)pyrazine-2-carboxamide] | 100 to 500 |
| Cc1cn2cc(NC(=O)c3cnc(N4CC5C[C@@]5(N)C4)cn3)cc(F)c2n1 (stereo partly drawn) [Example 35, 5-((1S)-1-amino-3-azabicyclo[3.1.0]hexan-3-yl)-N-(8-fluoro-2-methylimidazo[1,2-a]pyridin-6-yl)pyrazine-2-carboxamide] | 500 to 1000 |
| Cc1cn2cc(NC(=O)c3cnc(N4CC5C[C@]5(N)C4)cn3)cc(F)c2n1 (stereo partly drawn) [Example 36, 5-((1R)-1-amino-3-azabicyclo[3.1.0]hexan-3-yl)-N-(8-fluoro-2-methylimidazo[1,2-a]pyridin-6-yl)pyrazine-2-carboxamide] | 100 to 500 |
| Cc1cn2cc(NC(=O)c3cnc(N4CC5C(C4)C5NC4CC4)cn3)cc(F)c2n1 (stereo not drawn) [Example 37, 5-[6-(Cyclopropylamino)-3-azabicyclo[3.1.0]hexan-3-yl]-N-(8-fluoro-2-methyl-imidazo[1,2-a]pyridin-6-yl)pyrazine-2-carboxamide] | 100 to 500 |
| Cc1cn2cc(NC(=O)c3cnc(N4CC[C@@H](NC5CC5)C4=O)cn3)cc(F)c2n1 [Example 43, (R)-5-(3-(cyclopropylamino)-2-oxopyrrolidin-1-yl)-N-(8-fluoro-2-methylimidazo[1,2-a]pyridin-6-yl)pyrazine-2-carboxamide] | 100 to 500 |
| Cc1cn2cc(NC(=O)c3cnc(N4CC[C@H](NC5CC5)C4=O)cn3)cc(F)c2n1 [Example 44, (S)-5-(3-(cyclopropylamino)-2-oxopyrrolidin-1-yl)-N-(8-fluoro-2-methylimidazo[1,2-a]pyridin-6-yl)pyrazine-2-carboxamide] | 100 to 500 |
| Cc1cn2cc(NC(=O)c3cnc(N4CC(CN5CC(OCC(=O)NCCC6(CCN=[N+]=[N-])N=N6)C5)C4)cn3)cc(F)c2n1 [Example 45, 5-[3-[[3-[2-[2-[3-(2-azidoethyl)diazirin-3-yl]ethylamino]-2-oxo-ethoxy]azetidin-1-yl]methyl]azetidin-1-yl]-N-(8-fluoro-2-methyl-imidazo[1,2-a]pyridin-6-yl)pyrazine-2-carboxamide] | 500 to 1000 |
| Cc1cn2cc(NC(=O)c3cnc(-n4cc(CNC5CC5)cn4)cn3)cc(F)c2n1 [Example 46, 5-(4-((Cyclopropylamino)methyl)-1H-pyrazol-1-yl)-N-(8-fluoro-2-methylimidazo[1,2-a]pyridin-6-yl)pyrazine-2-carboxamide] | 500 to 1000 |
